# Experiments:
# [1] = system: C57BL/ks diabetic (db/db) mice; experiment: Glucose-lowering (plasma glucose) in diabetic db/db mice; assay type: in vivo; details: for mean glucose levels declined from the baseline value / mean glucose levels declined from the baseline values / mean glucose levels declined from baseline values: value = size of decline; for Change in Glucose (mg/dL) 3 h: 3 h after initial dose, vehicle −8.0; for Change in Glucose (mg/dL) 3 h / Change in Glucose (mg/dL) 6 h: Table 1; for Change in Glucose (mg/dL) 6 h / Change in Glucose (mg/dL) 6 H: 6 h after initial dose; for Change in Glucose (mg/dL) 6 h: vehicle 64.5; for Change in Glucose (mg/dL) 8 h: 8 h after initial dose, vehicle 79.5; for Change in Glucose (mg/dL) 24 h: 24 h after initial dose, vehicle 18.6; for Change in Glucose (mg/dL) 54 H: 54 h after initial dose; for reduction in plasma glucose relative to vehicle (control) (in words): oral
# Protocol: (§1) Genetically altered obese diabetic mice (designated C57BL/ks diabetic or db/db) were purchased from the Jackson Laboratory (Bar Harbor, Me., USA), and served as experimental animals. Male animals between the ages of 8-9 weeks were employed in the studies described here. Animals were housed (4 mice/cage) under standard laboratory conditions at 22° C. and 50% relative humidity, and were maintained on a diet of Purina rodent chow and water ad libitum. Prior to treatment, blood was collected from the tail vein of each animal. Mice that had plasma glucose levels between 350 and 600 mg/dL were used. Each treatment group consisted of eight mice that were distributed so that the mean glucose levels were equivalent in each group at the start of the study. Db/db mice received, orally by gavage: the experimental compound administered at 62.5, 125, or 250 mg/kg/day (unless otherwise noted), or metformin administered at […] for 1-3 days. Test compounds were delivered in a liquid vehicle containing 0.25% (w/v) carboxymethyl-cellulose, 1% (v/v) Tween […] (polyoxyethylene sorbitan monosterate), and up to 10% (v/v) dimethyl sulfoxide (DMSO) in a volume of 10 ml/kg. Blood was sampled from the tail vein at three hours, six, eight, twenty-four, and thirty hours post-administration (the first administration) of the particular compound in non-fasted conditions. Experiments 3-5 also sampled blood at fifty-four hours post-administration (the first administration) of the particular compound in non-fasted conditions. Blood samples were analyzed for plasma glucose levels. Individual body weights and mean food consumption (each cage) were also measured daily.
# The isolated test substances were prepared as described previously (vide supra). Metformin (1,1-dimethylbiguanide), carboxymethyl cellulose and Tween 60 were purchased from Sigma Chemical Co. (St. Louis, Mo., USA; catalog #'s D-5035, C-4888, and p-1629, respectively). Plasma glucose levels were determined colorimetrically using glucose oxidase (Sigma Chemical Co.; Sigma catalog #315). Significant differences between groups (comparing compound-treated to vehicle-treated) were evaluated using analysis of variance and Fisher's post-hoc test.
# Vehicle, metformin (250 mg/kg) or enriched extract (1000 mg/kg) were given to db/db mice at 0(initial), 8, 24, 32, 48, 56, 72, 80, and 96 hours post initial dose.
# Plasma glucose levels were measured at baseline, 3 (day 1), 51 hours (Day 3), and 99 hours (Day 5).
# [2] = Body weights and food consumption in diabetic db/db mice; assay type: in vivo; details: for Food Intake (g/mouse) 0-24 h: vehicle 6.8; for Body weight (g/mouse) (mean) 24 hr: vehicle 37.8 ± 0.8
# Protocol: as §1
# [3] = 250 mg/kg oral, dosed at 0, 8 and 24 h
# [4] = 250 mg/kg oral, dosed at 0, 8 and 24 h, Table 2
# [5] = 250 mg/kg, vehicle 38.0 ± 0.8, Table 3
# [6] = 125 mg/kg q.d. oral at 0, 24, 48 h, vehicle 20.0, Table 10
# [7] = 125 mg/kg q.d. oral at 0, 24, 48 h, 30 h after initial dose, vehicle 0.1, Table 10
# [8] = 125 mg/kg q.d. oral at 0, 24, 48 h, vehicle −20.2, Table 10
# [9] = Table 10, 125 mg/kg, fifty-four hours after initial dosing
# [10] = Table 10, 125 mg/kg, six hours after initial dosing
# [11] = Table 10, 125 mg/kg, thirty hours after initial dosing
# [12] = dose level of 125 mg/kg, Tables 8 and 10
# [13] = 125 mg/kg, vehicle 6.1, Table 11
# [14] = 125 mg/kg, vehicle 39.4 ± 0.4, Table 11
# [15] = 125 mg/kg, vehicle 40.1 ± 0.4, Table 11
molecule,measurement,setting,value
3-hydroxy-4-(3-methyl-2-butenyl)-5-methoxystilbene-2-carboxylic acid [Compound C],mean glucose levels declined from the baseline value,"[1]; Tables 4 and 6, 125 mg/kg, fifty-four hours after initial dosing",60.4 mg/dL
same,mean glucose levels declined from the baseline values,"[1]; Tables 4 and 6, 250 mg/kg, fifty-four hours after initial dosing",122.0 mg/dL
"COc1cc(O)cc(/C=C/c2ccccc2)c1 [Compound B, 3-hydroxy-5-methoxystilbene]",Change in Glucose (mg/dL) 3 h,[1]; [3],-35.3 mg/dL
same,Change in Glucose (mg/dL) 6 h,[1]; [3],+29.3 mg/dL
same,Change in Glucose (mg/dL) 8 h,[1]; [4],+52.2 mg/dL
same,Change in Glucose (mg/dL) 24 h,[1]; [4],-50.6 mg/dL
same,Change in Glucose (mg/dL) 30 h,"[1]; 250 mg/kg oral, dosed at 0, 8 and 24 h, 30 h after initial dose, Table 2",+36.5 mg/dL
same,Food Intake (g/mouse) 0-24 h,"[2]; 250 mg/kg, Table 3",5.9 g/mouse
same,Body weight (g/mouse) (mean) 0 h,[2]; [5],37.8 ± 0.4 g/mouse
same,Body weight (g/mouse) (mean) 24 hr,"[2]; 250 mg/kg, Table 3",37.8 ± 0.4 g/mouse
"COc1cc(/C=C/c2ccccc2)c(C(=O)O)c(O)c1CC=C(C)C [Compound C, 3-hydroxy-4-(3-methyl-2-butenyl)-5-methoxystilbene-2-carboxylic acid]",Change in Glucose (mg/dL) 6 H,"[1]; 62.5 mg/kg q.d. oral at 0, 24, 48 h, vehicle 35.9, Tables 4 and 6 (dose of row)",-18.6 mg/dL
same,Change in Glucose (mg/dL) 30 H,"[1]; 62.5 mg/kg q.d. oral at 0, 24, 48 h, 30 h after initial dose, vehicle 79.6, Tables 4 and 6",-40.7 mg/dL
same,Change in Glucose (mg/dL) 54 H,"[1]; 62.5 mg/kg q.d. oral at 0, 24, 48 h, vehicle 60.3, Tables 4 and 6",65.4 mg/dL
same,Change in Glucose (mg/dL) 6 H,"[1]; 125 mg/kg q.d. oral at 0, 24, 48 h, vehicle 35.9, Tables 4 and 6 (dose of row)",-34.3 mg/dL
same,Change in Glucose (mg/dL) 30 H,"[1]; 125 mg/kg q.d. oral at 0, 24, 48 h, 30 h after initial dose, vehicle 79.6, Tables 4 and 6",-69.7 mg/dL
same,Change in Glucose (mg/dL) 54 H,"[1]; 125 mg/kg q.d. oral at 0, 24, 48 h, vehicle 60.3, Tables 4 and 6",-60.4 mg/dL
same,Change in Glucose (mg/dL) 3 h,[1]; [3],-10.4 mg/dL
same,Change in Glucose (mg/dL) 6 h,[1]; [3],-8.4 mg/dL
same,Change in Glucose (mg/dL) 8 h,[1]; [4],+4.5 mg/dL
same,Change in Glucose (mg/dL) 24 h,[1]; [4],-122.8 mg/dL
same,Change in Glucose (mg/dL) 6 H,"[1]; 250 mg/kg q.d. oral at 0, 24, 48 h, vehicle 35.9, Tables 4 and 6",-120.8 mg/dL
same,Change in Glucose (mg/dL) 30 H,"[1]; 250 mg/kg q.d. oral at 0, 24, 48 h, 30 h after initial dose, vehicle 79.6, Tables 4 and 6",-221.4 mg/dL
same,Change in Glucose (mg/dL) 54 H,"[1]; 250 mg/kg q.d. oral at 0, 24, 48 h, vehicle 60.3, Tables 4 and 6",-122.0 mg/dL
same,mean glucose levels declined from the baseline value,"[1]; Table 8, 125 mg/kg, thirty hours after initial dosing",12.2 mg/dL
same,mean glucose levels rose from the baseline values,"[1]; Tables 1-2, 250 mg/kg, eight hours after initial dosing, value = size of rise",4.5 mg/dL
same,mean glucose levels declined from the baseline value,"[1]; Tables 1-2, 250 mg/kg, six hours after initial dosing",8.4 mg/dL
same,mean glucose levels rose from the baseline value,"[1]; Tables 1-2, 250 mg/kg, thirty hours after dosing, value = size of rise",36.5 mg/dL
same,mean glucose levels declined from the baseline values,"[1]; Tables 1-2, 250 mg/kg, twenty-four hours after initial dosing",122.8 mg/dL
same,mean glucose levels declined from the baseline value,"[1]; Tables 4 and 6, 125 mg/kg, six hours after initial dosing",34.3 mg/dL
same,reduction in plasma glucose relative to vehicle (control) (in words),"[1]; dose level of 250 mg/kg, Tables 1 and 2",statistically significant reduction
same,reduction in plasma glucose relative to vehicle (control) (in words),"[1]; dose levels of 62.5, 125, and 250 mg/kg, Tables 4 and 6",statistically significant reduction
same,adverse effect on food intake or body weight (in words),"[2]; 62.5 mg/kg, 125 mg/kg, and 250 mg/kg, Tables 5 and 7",absence of any significantly adverse effect
same,Food Intake (g/mouse) 0-48 h,"[2]; 62.5 mg/kg, vehicle 6.3, Tables 5 and 7",5.9 g/mouse
same,Body weight (g/mouse) (mean) 0 h,"[2]; 62.5 mg/kg, vehicle 39.2 ± 0.5, Tables 5 and 7",37.4 ± 0.4 g/mouse
same,Body weight (g/mouse) (mean) 48 hr,"[2]; 62.5 mg/kg, vehicle 39.5 ± 0.5, Tables 5 and 7",38.2 ± 0.5 g/mouse
same,Food Intake (g/mouse) 0-48 h,"[2]; 125 mg/kg, vehicle 6.3, Tables 5 and 7",5.6 g/mouse
same,Body weight (g/mouse) (mean) 0 h,"[2]; 125 mg/kg, vehicle 39.2 ± 0.5, Tables 5 and 7",39.4 ± 0.4 g/mouse
same,Body weight (g/mouse) (mean) 48 hr,"[2]; 125 mg/kg, vehicle 39.5 ± 0.5, Tables 5 and 7",39.7 ± 0.3 g/mouse
same,food intake compared with the normal food intake range (5-6 g/day/mouse) (in words),[2]; 250 mg/kg,less than that of the normal food intake range
same,Food Intake (g/mouse) 0-24 h,"[2]; 250 mg/kg, Table 3",3.3 g/mouse
same,Food Intake (g/mouse) 0-48 h,"[2]; 250 mg/kg, vehicle 6.3, Tables 5 and 7",4.3 g/mouse
same,Body weight (g/mouse) (mean) 0 h,[2]; [5],38.7 ± 0.8 g/mouse
same,Body weight (g/mouse) (mean) 0 h,"[2]; 250 mg/kg, vehicle 39.2 ± 0.5, Tables 5 and 7",39.1 ± 0.8 g/mouse
same,Body weight (g/mouse) (mean) 24 hr,"[2]; 250 mg/kg, Table 3",38.0 ± 0.7 g/mouse
same,Body weight (g/mouse) (mean) 48 hr,"[2]; 250 mg/kg, vehicle 39.5 ± 0.5, Tables 5 and 7",38.4 ± 0.1 g/mouse
same,adverse effect on food intake or body weight (in words),"[2]; 250 mg/kg, Table 3",absence of any significantly adverse effect
"COc1cc(/C=C/c2ccccc2)cc(O)c1CC=C(C)C [Compound D, 3-hydroxy-5-methoxy-4-(3-methyl-2-butenyl)stilbene]",Change in Glucose (mg/dL) 6 H,[1]; [6],[…]
same,Food Intake (g/mouse) 0-48 h,[2]; [13],5.7 g/mouse
same,Body weight (g/mouse) (mean) 0 h,[2]; [14],39.3 ± 0.6 g/mouse
same,Body weight (g/mouse) (mean) 48 hr,[2]; [15],39.7 ± 0.7 g/mouse
COc1cc(O)cc(CCc2ccccc2)c1CC=C(C)C [Compound E],Change in Glucose (mg/dL) 6 H,"[1]; 125 mg/kg q.d. oral at 0, 24, 48 h, vehicle 15.5, Table 8",-2.1 mg/dL
same,Change in Glucose (mg/dL) 6 H,[1]; [6],-53.8 mg/dL
same,Change in Glucose (mg/dL) 30 H,[1]; [7],-109.9 mg/dL
same,Change in Glucose (mg/dL) 30 H,"[1]; 125 mg/kg q.d. oral at 0, 24, 48 h, 30 h after initial dose, vehicle 56.6, Table 8",-47.0 mg/dL
same,Change in Glucose (mg/dL) 54 H,"[1]; 125 mg/kg q.d. oral at 0, 24, 48 h, vehicle 88.6, Table 8",-54.7 mg/dL
same,Change in Glucose (mg/dL) 54 H,[1]; [8],-86.6 mg/dL
same,mean glucose levels declined from baseline values,"[1]; Table 8, 125 mg/kg, fifty-four hours after initial dosing",54.7 mg/dL
same,mean glucose levels declined from the baseline value,"[1]; Table 8, printed dose 250 mg/kg, thirty hours after initial dosing",47.0 mg/dL
same,mean glucose levels declined from baseline values,[1]; [9],86.6 mg/dL
same,mean glucose levels declined from the baseline value,[1]; [10],53.8 mg/dL
same,mean glucose levels declined from the baseline value,[1]; [11],109.9 mg/dL
same,reduction in plasma glucose relative to vehicle (control) (in words),[1]; [12],statistically significant reduction
same,Food Intake (g/mouse) 0-48 h,"[2]; 125 mg/kg, vehicle 6.0, Table 9",5.7 g/mouse
same,Food Intake (g/mouse) 0-48 h,[2]; [13],5.7 g/mouse
same,Body weight (g/mouse) (mean) 0 h,[2]; [14],39.6 ± 0.3 g/mouse
same,Body weight (g/mouse) (mean) 0 h,"[2]; 125 mg/kg, vehicle 39.8 ± 0.7, Table 9",39.5 ± 0.5 g/mouse
same,Body weight (g/mouse) (mean) 48 hr,"[2]; 125 mg/kg, vehicle 39.7 ± 0.6, Table 9",39.7 ± 0.6 g/mouse
same,Body weight (g/mouse) (mean) 48 hr,[2]; [15],40.2 ± 0.4 g/mouse
same,adverse effect on food intake or body weight (in words),"[2]; 125 mg/kg, Tables 9 and 11",absence of any significantly adverse effect
COc1cc(O)cc(CCc2ccccc2)c1CCC(C)C [Compound F],Food Intake (g/mouse) 0-48 h,[2]; [13],5.8 g/mouse
same,Body weight (g/mouse) (mean) 0 h,[2]; [14],39.3 ± 0.8 g/mouse
same,Body weight (g/mouse) (mean) 48 hr,[2]; [15],39.8 ± 0.8 g/mouse
